The target in this test is T1, human TREM2 (Homo sapiens, UniProt Q9NZC2).
T1 construct: expressed in transfected cells; host or cells: HEK293T
The test can be described thus: hTREM2 agonist potency by cellular Syk phosphorylation (AlphaLisa) in HEK293T-hTREM2 cells. Format: cell-based. The note with it: HEK293 cells expressing human TREM2 and DAP12, pSyk AlphaLisa, 45 minutes at room temperature. As to the method: In Vitro Measurement of Triggering Receptor Expressed on Myeloid Cells 2 Activity Using Cellular Phosphorylation of Spleen Tyrosine Kinase (“Syk”) Assays
Measurement of TREM2 agonist potency was done using a HEK cell line expressing human TREM2 and DAP12 (HEK293T-hTREM2 cells). Binding of small molecules to, and activation of, TREM2 increases the phosphorylation of Syk. The resultant levels of Syk phosphorylation are measured using a commercial AlphaLisa reagent kit. To perform the assay, HEK-hTREM2 cells were plated at 14,000 cells per well in a 384 well plate, in 25 μL of complete growth media and incubated at 37° C., 5% CO2 for 20-24 hours.
Prior to the assay, test compounds were diluted in the 384 well plates in assay buffer and allowed to equilibrate for 30 minutes. Growth media was removed from cell plates by inversion on blotting paper, and 25 μL of test articles in assay buffer was added to cells. Cells were incubated for 45 minutes at room temperature. After 45 minutes, assay buffer was removed and 10 μL of lysis buffer was added. Plates were shaken for 20 minutes at 350 RPM at room temperature. After complete lysis, AlphaLisa reagents were added to the lysate, and fluorescence intensity was measured using a Perkin Elmer Envision plate reader. Intensities were used to generate a standard curve, and % activation was calculated. Curve fitting was performed using Prism v9 software, log (agonist) vs response-variable slope (four parameters), and EC50s were calculated from the curve fit.
The results presented in Table D have been generated with the in vitro assay described above. This assay may be used to test any of the compounds described herein to assess and characterize a compound's ability to act as an agonist of TREM2.
(In general: In Alpha technology, singlet oxygen from a donor bead excites a nearby acceptor bead.)

T1 sequence (Q9NZC2 19-230): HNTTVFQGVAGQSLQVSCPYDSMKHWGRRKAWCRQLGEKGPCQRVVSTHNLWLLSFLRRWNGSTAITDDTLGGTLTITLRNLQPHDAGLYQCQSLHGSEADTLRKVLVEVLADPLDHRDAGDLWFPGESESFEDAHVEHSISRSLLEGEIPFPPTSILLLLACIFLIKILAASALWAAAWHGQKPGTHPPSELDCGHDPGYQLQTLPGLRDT
T1 sequence (O43914 22-113 partner): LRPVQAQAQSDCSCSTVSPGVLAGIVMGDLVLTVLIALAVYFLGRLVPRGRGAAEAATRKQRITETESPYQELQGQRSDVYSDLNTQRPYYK

Where the note is “Table D-2”, `Cn1ncc2c(-c3ccc(C(F)(F)F)cc3F)nc([C@H]3CCO[C@@H](c4cnn(C5CC5)c4)C3)cc2c1=O` [I-53, 7-[(2R, 4S)-2-(1-cyclopropylpyrazol-4-yl)tetrahydropyran-4-yl]-5-[2-fluoro-4-(trifluoroomethyl)phenyl]-2-methyl-pyrido[3,4-d]pyridazin-1-one] showed an EC50 of 0.05 to 0.5 µM.
In turn, `Cc1ccc(-c2nc(N3C[C@@H](C)O[C@@H](c4cnn(C5CC5)c4)C3)nc3c(=O)n(C)ncc23)c(F)c1` [I-203, 2-((2S,6R)-2-(1-cyclopropyl-1H-pyrazol-4-yl)-6-methylmorpholino)-4-(2-fluoro-4-methylphenyl)-7-methylpyrimido[4,5-d]pyridazin-8 (7H)-one] had an EC50 (Table D-2) of at most 0.05 µM.
Same read-out and setting: the result for `Cc1cc2c(-c3ccc(C(F)(F)F)cc3F)nc([C@H]3CCO[C@@H](c4cnn(C5CC5)c4)C3)cc2c(=O)n1C` [I-95, 7-((2R,4S)-2-(1-cyclopropyl-1H-pyrazol-4-yl)tetrahydro-2H-pyran-4-yl)-5-(2-fluoro-4-(trifluoromethyl)phenyl)-2,3-dimethyl-2,6-naphthyridin-1 (2H)-one] reads at most 0.05 µM.
In turn, `Cc1nc2c(-c3ccc(C(F)(F)F)cc3F)nc(N3C[C@@H](C)O[C@@H](c4cnn(C5CC5)c4)C3)nc2c(=O)n1C` [I-136, 6-[(2S,6R)-2-(1-cyclopropylpyrazol-4-yl)-6-methyl-morpholin-4-yl]-8-[2-fluoro-4-(trifluoromethyl)phenyl]-2,3-dimethyl-pyrimido[5,4-d]pyrimidin-4-one] yielded an EC50 (Table D-2) of at most 0.05 µM.
`Cc1nc2c(-c3ccc(C(F)(F)F)cc3F)nc([C@@H]3CCO[C@@H](c4cnn(C5CC5)c4)C3)nc2c(=O)n1C` [I-132, 6-[(2R,4R)-2-(1-cyclopropylpyrazol-4-yl)tetrahydropyran-4-yl]-8-[2-fluoro-4-(trifluoromethyl)phenyl]-2,3-dimethyl-pyrimido[5,4-d]pyrimidin-4-one]: for the setting “Table D-2”, the EC50 lay within 0.05 to 0.5 µM.
`Cc1nc2c(-c3ccc(F)cc3F)cc(N3C[C@@H](C)O[C@@H](c4cnn(C5CC5)c4)C3)nc2c(=O)n1C` [I-110, 6-((2S,6R)-2-(1-cyclopropyl-1H-pyrazol-4-yl)-6-methylmorpholino)-8-(2,4-difluorophenyl)-2,3-dimethylpyrido[3,2-d]pyrimidin-4 (3H)-one]: the half-maximal effective concentration (EC50) (Table D-2) is at most 0.05 µM.
The same measure, in the same setting: under `C[C@@H]1CN(c2nc(-c3ccc(F)cc3F)c3ncn(C)c(=O)c3n2)C[C@H](c2cnn(C3CC3)c2)O1` [I-163, 6-((2S,6R)-2-(1-cyclopropyl-1H-pyrazol-4-yl)-6-methylmorpholino)-8-(2,4-difluorophenyl)-3-methylpyrimido[5,4-d]pyrimidin-4 (3H)-one] stands at most 0.05 µM; under `Cn1ncc2c(-c3ccc(F)cc3F)nc(C3CCO[C@@H](c4cn(C5CC5)[n+](C)c4)C3)nc2c1=O` (stereo partly drawn) [I-157, 2-[(2R)-2-(1-cyclopropyl-2-methyl-pyrazol-2-ium-4-yl)tetrahydropyran-4-yl]-4-(2,4-difluorophenyl)-7-methyl-pyrimido[4,5-d]pyridazin-8-one], 0.5 to 3 µM.
Same read-out and setting: under `Cc1nc2c(-c3ccc(C(F)(F)F)cc3F)nc([C@H]3CCO[C@@H](c4cnn(C5CC5)c4)C3)nc2c(=O)n1C` [I-134, 6-[(2R,4S)-2-(1-cyclopropylpyrazol-4-yl)tetrahydropyran-4-yl]-8-[2-fluoro-4-(trifluoromethyl)phenyl]-2,3-dimethyl-pyrimido[5,4-d]pyrimidin-4-one] stands at most 0.05 µM; under `Cc1cc2c(-c3ccc(C(F)(F)F)cc3F)nc(N3C[C@@H](C)O[C@@H](c4cnn(C5CC5)c4)C3)cc2c(=O)n1C` [I-79, 7-((2S,6R)-2-(1-cyclopropyl-1H-pyrazol-4-yl)-6-methylmorpholino)-5-(2-fluoro-4-(trifluoromethyl)phenyl)-2,3-dimethyl-2,6-naphthyridin-1 (2H)-one], at most 0.05 µM; under `Cc1nc2c(-c3ccc(F)cc3F)cc([C@H]3CCO[C@@H](c4cnn(C5CC5)c4)C3)nc2c(=O)n1C` [I-120, 6-((2R,4S)-2-(1-cyclopropyl-1H-pyrazol-4-yl)tetrahydro-2H-pyran-4-yl)-8-(2,4-difluorophenyl)-2,3-dimethylpyrido[3,2-d]pyrimidin-4 (3H)-one], 0.05 to 0.5 µM.
For the setting “Table D-2”, `CC1Nc2c(nc([C@H]3CCO[C@@H](c4cnn(C5CC5)c4)C3)nc2-c2ccc(F)cc2F)C(=O)N1C` (stereo partly drawn) [I-173] yielded an EC50 of 0.5 to 3 µM.
The molecule `Cc1nc2nc(-c3ccc(F)cc3F)cc(C3CCOC(c4cnn(C5CC5)c4)C3)c2c(=O)n1C` (stereo not drawn) [compound 5, 5-(2-(1-cyclopropyl-1H-pyrazol-4-yl)tetrahydro-2H-pyran-4-yl)-7-(2,4-difluorophenyl)-2,3-dimethylpyrido[2,3-d]pyrimidin-4(3H)-one] returned an EC50 (Table D) of 0.5 to 3 µM.
For the setting “Table D-2”, `Cn1ncc2c(-c3ccc(Cl)cc3F)nc(N3C[C@@H](c4cnn(C5CC5)c4)O[C@@H](C4CC4)C3)nc2c1=O` (single isomer, unassigned) [I-184] returned an EC50 of at most 0.05 µM.
Still for that read-out and setting: under `Cc1nc2c(-c3ccc(Cl)cc3F)nc(N3C[C@@H](C)O[C@@H](c4cnn(C5CC5)c4)C3)nc2c(=O)n1C` [I-152, 8-(4-chloro-2-fluoro-phenyl)-6-[(2S,6R)-2-(1-cyclopropylpyrazol-4-yl)-6-methyl-morpholin-4-yl]-2,3-dimethyl-pyrimido[5,4-d]pyrimidin-4-one] stands at most 0.05 µM.
For `C[C@@H]1CN(c2nc(-c3ccc(F)cc3F)c3cnn(C)c(=O)c3n2)C[C@H](c2cnn(C3CC3)c2)O1` [I-141, 2-[(2S, 6R)-2-(1-cyclopropylpyrazol-4-yl)-6-methyl-morpholin-4-yl]-4-(2,4-difluorophenyl)-7-methyl-pyrimido[4,5-d]pyridazin-8-one], the EC50 (Table D-2) is at most 0.05 µM.
For the molecule `Cc1nc2c(-c3ccc(F)cc3F)nc(N3C[C@@H](C)O[C@@H](c4cnn(C5CC5)c4)C3)nc2c(=O)n1C` [I-90, 6-((2S,6R)-2-(1-cyclopropyl-1H-pyrazol-4-yl)-6-methylmorpholino)-8-(2,4-difluorophenyl)-2,3-dimethylpyrimido[5,4-d]pyrimidin-4 (3H)-one], the EC50 (Table D-2) was at most 0.05 µM.
Still for that read-out and setting: the result for `Cc1nc2c(-c3ccc(F)cc3F)nc([C@@H]3CCO[C@@H](c4cnn(C5CC5)c4)C3)nc2c(=O)n1C` [I-168] reads 0.05 to 0.5 µM.
`Cc1nc2cc(N3CCOC(c4cc[nH]c(=O)c4)C3)nc(C34CC(C(F)(F)F)(C3)C4)c2c(=O)n1C` (stereo not drawn) [compound 4, 2,3-dimethyl-7-(2-(2-oxo-1,2-dihydropyridin-4-yl)morpholino)-5-(3-(trifluoromethyl)bicyclo[1.1.1]pentan-1-yl)pyrido[4,3-d]pyrimidin-4(3H)-one]: the 50% effective concentration (EC50) (Table D) is at most 0.05 µM.
On the same count and under the same terms, under `Cc1nc2cc(N3CCO[C@H](c4cc[nH]c(=O)c4)C3)nc(-c3ccc(F)cc3F)c2c(=O)n1C` [compound 3, (R)-5-(2,4-difluorophenyl)-2,3-dimethyl-7-(2-(2-oxo-1,2-dihydropyridin-4-yl)morpholino)pyrido[4,3-d]pyrimidin-4(3H)-one] stands 3 to 100 µM.
With `Cc1nc2c(C3CCCCC3)nc(N3C[C@@H](C)O[C@@H](c4cnn(C5CC5)c4)C3)nc2c(=O)n1C` [I-208, 8-cyclohexyl-6-((2S,6R)-2-(1-cyclopropyl-1H-pyrazol-4-yl)-6-methylmorpholino)-2,3-dimethylpyrimido[5,4-d]pyrimidin-4 (3H)-one], the EC50 (Table D-2) was at most 0.05 µM.

As usually defined, the EC50 is the concentration giving half of the maximal effect. Low values mean a more potent agent, high ones a less potent agent.
